In ChEMBL document CHEMBL1201862, “PubChem BioAssay data set” (2004):
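Following 48 hours of exposure in 96-well plates, responses at five concentrations were used to interpolate endpoints linearly. GI50 marks 50% less growth.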 Calls of active or inactive are those of the source. Cut-off read from the data, not from the text of the source: active = GI50 up to about 1.1 µM and inactive = higher.

Experiments:
Test in all cases: NCI-60 cell line screen, 48 h
DLD-1 = test system: DLD-1
RXF 631 = test system: RXF 631
SNB-78 = test system: SNB-78
DMS-273 = test system: DMS-273
M19-MEL = test system: M19-MEL
XF498 = test system: XF498
HOP-18 = test system: HOP-18
LXFL 529 = test system: LXFL 529
DMS-114 = test system: DMS-114

Measured: GI50

O=C1NC2(CCCC2)C(=O)C12CCCC2
inactive: DLD-1 > 100 µM | RXF 631 > 100 µM | SNB-78 > 100 µM | DMS-273 > 100 µM | M19-MEL > 100 µM | XF498 > 100 µM | HOP-18 > 100 µM | LXFL 529 > 100 µM

CCOC(=O)/C(=C/c1ccc(OC)cc1)N(CC)CC
inactive: SNB-78 34.5 µM | DMS-273 > 100 µM | M19-MEL > 100 µM | XF498 > 100 µM | LXFL 529 > 100 µM | DMS-114 > 100 µM

CN(C(=O)/C=C/c1ccccc1)C1C2CN3CCC(O2)C13 (stereo not given)
inactive: DLD-1 > 100 µM | SNB-78 > 100 µM | DMS-273 > 100 µM | XF498 > 100 µM | HOP-18 > 100 µM | LXFL 529 > 100 µM | DMS-114 > 100 µM

FC(F)(F)C1(Cl)C(c2ccccc2)=C1c1ccccc1
inactive: DLD-1 14.8 µM | RXF 631 15.1 µM | SNB-78 15.6 µM | DMS-273 14.3 µM | M19-MEL 14.6 µM | XF498 13.6 µM | HOP-18 20.7 µM | LXFL 529 13.4 µM | DMS-114 12.9 µM

N[C@H](C(=O)O)[C@H](Cl)CC(=O)O
inactive: DLD-1 > 100 µM | SNB-78 > 100 µM | DMS-273 > 100 µM | M19-MEL > 100 µM | XF498 > 100 µM | HOP-18 > 100 µM | LXFL 529 > 100 µM | DMS-114 > 100 µM

N#CC1(Cc2ccccc2Cl)c2ccccc2C=CN1C(=O)c1ccccc1 (stereo not given)
inactive: SNB-78 > 100 µM | DMS-273 > 100 µM | M19-MEL > 100 µM | XF498 40.1 µM | HOP-18 > 100 µM | LXFL 529 43.1 µM | DMS-114 96.8 µM

CC1=C2CCCC2=C/C(=N/Nc2ccc([N+](=O)[O-])cc2[N+](=O)[O-])CC1
inactive: DLD-1 > 100 µM | SNB-78 > 100 µM | DMS-273 > 100 µM | M19-MEL > 100 µM | XF498 > 100 µM | HOP-18 > 100 µM | LXFL 529 > 100 µM | DMS-114 > 100 µM

CC(=O)N(C)OC(=O)CC(=O)c1ccccc1
inactive: DLD-1 > 100 µM | RXF 631 > 100 µM | SNB-78 > 100 µM | DMS-273 > 100 µM | M19-MEL > 100 µM | XF498 > 100 µM | LXFL 529 > 100 µM | DMS-114 > 100 µM

CC(C)(C)NNC(=O)CCn1[nH]c(=O)c(Cl)c(Cl)c1=O
inactive: DLD-1 > 100 µM | RXF 631 > 100 µM | DMS-273 > 100 µM | M19-MEL > 100 µM | XF498 > 100 µM | HOP-18 > 100 µM | LXFL 529 > 100 µM | DMS-114 > 100 µM

COC(=O)C1C(OCc2ccccc2)C2CCC1(OC)C=C2C (stereo not given)
inactive: DLD-1 > 100 µM | SNB-78 > 100 µM | DMS-273 > 55.3 µM | M19-MEL > 58.3 µM | XF498 > 45.1 µM | HOP-18 > 100 µM | LXFL 529 59 µM | DMS-114 > 57.1 µM

COc1cc2c(cc1OC)-c1c3cc(O)ccc3nn[n+]1CC2
inactive: DLD-1 > 100 µM | SNB-78 > 100 µM | DMS-273 > 100 µM | M19-MEL > 100 µM | XF498 > 100 µM | HOP-18 > 100 µM | LXFL 529 > 100 µM | DMS-114 > 100 µM

COc1ccccc1NC(=O)C1=C(C)NC(C)=C(C(=O)Nc2ccccc2OC)C1c1ccc(C2C(C(=O)Nc3ccccc3OC)=C(C)NC(C)=C2C(=O)Nc2ccccc2OC)cc1
inactive: DLD-1 1.22 µM | RXF 631 3.46 µM | SNB-78 4.16 µM | DMS-273 2.32 µM | M19-MEL 3.15 µM | XF498 2.21 µM | HOP-18 18 µM | LXFL 529 1.89 µM | DMS-114 3.52 µM

CC(C)(C)c1cc(C=C(C#N)C#N)cc(C(C)(C)C)c1O [TYRPHOSTIN A9]
active: DLD-1 0.828 µM | DMS-273 0.736 µM | XF498 0.776 µM | LXFL 529 0.518 µM | DMS-114 0.179 µM

N#C/C1=C(\N)CCSSSC1
inactive: DLD-1 31.7 µM | RXF 631 41.1 µM | SNB-78 21.7 µM | DMS-273 33.3 µM | M19-MEL 32.1 µM | XF498 51.6 µM | LXFL 529 33.1 µM | DMS-114 32.7 µM

[N-]=[N+]=NC1(c2ccccc2)C(=O)C(Cl)=C(c2ccccc2)N(c2ccccc2)C1=O (stereo not given)
inactive: DLD-1 > 100 µM | SNB-78 31.4 µM | DMS-273 > 100 µM | M19-MEL > 100 µM | HOP-18 > 100 µM | LXFL 529 91.6 µM | DMS-114 46.2 µM

CSc1ccc(/C=C2\CNC/C(=C\c3ccc(SC)cc3)C2=O)cc1
inactive: RXF 631 22.6 µM | XF498 8 µM | LXFL 529 21.2 µM | DMS-114 34 µM

O=C(CCc1n[nH]c(=S)o1)Nc1ccc(Cl)cc1Cl
inactive: DLD-1 > 100 µM | RXF 631 > 100 µM | SNB-78 > 100 µM | DMS-273 30.8 µM | M19-MEL > 100 µM | HOP-18 > 100 µM | LXFL 529 > 100 µM | DMS-114 > 100 µM

C#CCOCn1cnc2ncnc(N)c21
inactive: DLD-1 > 100 µM | SNB-78 > 100 µM | DMS-273 > 100 µM | M19-MEL > 100 µM | XF498 > 100 µM | HOP-18 > 100 µM | DMS-114 > 100 µM

CC(=O)OC1(C#N)CC2OC1C1N=NN(C(=O)OC(C)(C)C)C21 (stereo not given)
inactive: DLD-1 14.7 µM | SNB-78 21.1 µM | DMS-273 36.5 µM | M19-MEL > 100 µM | XF498 89.7 µM | HOP-18 > 100 µM | LXFL 529 32.3 µM | DMS-114 13.2 µM

O=C1SC(c2ccccc2)(c2ccccc2)c2ccccc21
inactive: DLD-1 52.8 µM | SNB-78 > 100 µM | DMS-273 > 100 µM | M19-MEL > 100 µM | XF498 > 100 µM | HOP-18 > 100 µM | LXFL 529 > 100 µM | DMS-114 26 µM

Cc1nc(=O)[nH]c2[nH][nH]c(=O)c12
inactive: M19-MEL > 100 µM | HOP-18 > 100 µM | LXFL 529 > 100 µM | DMS-114 > 100 µM

O=C1C=CC(=O)c2c1ccc1c3ccccc3n(-c3ccccc3)c21
inactive: DLD-1 2.26 µM | RXF 631 25.4 µM | SNB-78 20.3 µM | DMS-273 15.2 µM | M19-MEL 16.5 µM | HOP-18 7.82 µM | LXFL 529 3.53 µM | DMS-114 16.9 µM
active: XF498 0.535 µM

N#Cc1ccccc1Sc1ccccc1N
inactive: DLD-1 93.1 µM | SNB-78 > 100 µM | DMS-273 > 100 µM | M19-MEL > 100 µM | XF498 92 µM | HOP-18 27 µM | LXFL 529 61.5 µM | DMS-114 49.1 µM
